Test results reported in ChEMBL document CHEMBL1158652, “Constituents of Helenium amarum. II. Isolation and Characterization of Heleniamarin and Other Constituents” (1979).
Values after ≈ are worked out from the molar mass of the structure shown.

These compounds were tested on KB (assay: Cytotoxicity against human KB cells). Details: read-out: ED50 (the source's name).
Assay type: functional
`C=C1C(=O)O[C@H]2C[C@@H](C)[C@@H]3C=CC(=O)[C@@]3(C)C[C@H]12` [AROMATICIN] gave an EC50 of 2 µg/mL (≈ 8.12 µM). Work on `COc1c(O)cc2oc(-c3ccc(O)cc3)cc(=O)c2c1O` [HISPIDULIN] yielded an EC50 of 96 µg/mL (≈ 320 µM). For `C=C1C(=O)O[C@H]2C[C@@H](C)[C@@H]3C=CC(=O)[C@@]3(C)[C@H](O)[C@H]12` [MEXICANIN I], the EC50 was 1.9 µg/mL (≈ 7.24 µM). `C[C@@H]1C[C@@H]2OC(=O)[C@]3(C)[C@H]2[C@@H](OC3(C)O)[C@]2(C)C(=O)C=C[C@@H]12` (some centres undefined) [TENULIN] was tested, and the EC50 was 26 µg/mL (≈ 84.9 µM).
